What all share (assay type): cell-based
In experiment [1] the target is GLP-1R (WT) (Homo sapiens, UniProt P43220). Nature of the experiment: cAMP accumulation, WT GLP-1R. The arrangement: expressed in transfected cells; host or cells: HEK 293T. Particulars: Table S5, GLP-1R (WT), HEK 293T, 30 min, RT, mean ± SEM, n ≥ 3 in duplicate; for EC50: read-out: cAMP pEC50 (converted).
Experiment [2] deals with T1, GLP-2R D244^ECL1A (Homo sapiens, UniProt O95838, D244A).
T1 sequence (O95838 1-553 D244A): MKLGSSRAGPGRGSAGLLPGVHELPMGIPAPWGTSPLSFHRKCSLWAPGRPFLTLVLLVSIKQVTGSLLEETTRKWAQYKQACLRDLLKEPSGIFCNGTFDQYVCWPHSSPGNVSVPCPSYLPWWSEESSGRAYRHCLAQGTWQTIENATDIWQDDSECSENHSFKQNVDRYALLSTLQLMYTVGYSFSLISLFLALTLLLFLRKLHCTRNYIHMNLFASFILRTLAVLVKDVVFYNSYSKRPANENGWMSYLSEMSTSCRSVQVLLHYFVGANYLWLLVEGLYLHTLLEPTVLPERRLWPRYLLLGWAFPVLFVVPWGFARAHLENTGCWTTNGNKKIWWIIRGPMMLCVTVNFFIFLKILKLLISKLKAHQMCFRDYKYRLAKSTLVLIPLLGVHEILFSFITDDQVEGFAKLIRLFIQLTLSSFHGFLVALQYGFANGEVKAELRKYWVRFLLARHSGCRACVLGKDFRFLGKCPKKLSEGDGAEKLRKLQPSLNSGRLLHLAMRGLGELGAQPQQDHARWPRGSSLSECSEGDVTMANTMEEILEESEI
Nature of the experiment: cAMP accumulation, D244^ECL1A. The arrangement: WT (1–553); expressed in transfected cells; HEK 293T (cAMP). Particulars: Table S5, D244A, HEK 293T, 30 min, RT, mean ± SEM, n ≥ 3 in duplicate; for Emax: read-out: cAMP Emax (% WT); for EC50: read-out: cAMP pEC50 (converted). As for the experimental part: (§1) HEK 293T cells were cultured in Dulbecco’s Modified Eagle’s Medium (DMEM) (Gibco, Waltham, USA) supplemented with 10% (v/v) fetal bovine serum (FBS) (Gibco) and 1% (v/v) sodium pyruvate (Gibco) at 37 °C, 5% CO2 in a humidified incubator. They were seeded onto 6-well cell culture plates and transiently transfected with different GLP-2R constructs using Lipofectamine 2000 transfection reagent (Invitrogen, Carlsbad, CA, USA). After 24 h, the transfected cells were seeded onto 384-well microtiter plates (3000 cells per well) in HBSS supplemented with 5 mM HEPES, 0.1% (w/v) bovine serum albumin (BSA) and 0.5 mM 3-isobutyl-1- methylxanthine, and stimulated with increasing concentrations of GLP-2 for 30 min at RT. Eu and Ulight were diluted by cAMP detection buffer and added to the plates separately to terminate the reaction. Plates were incubated at RT for 60 min before measuring the fluorescence intensity at 620 nm and […] by an EnVision multilabel plate reader (PerkinElmer, Boston, USA).
(In general: Changes in cAMP serve as a functional read-out for many G protein-coupled receptors.)

Experiment [3] concerns the target T2, GLP-2R (1-553) (WT) (Homo sapiens, UniProt O95838).
T2 construct: GLP-2R (1-553) (WT); expressed in transfected cells; host or cells: HEK 293T
T2 sequence (O95838 1-553): T1 sequence (O95838 1-553 D244A) with A244D
Nature of the experiment: cAMP accumulation, WT GLP-2R. Particulars: 30 min, RT, mean ± SEM, n ≥ 3 in duplicate; for Emax: HEK-293T; for EC50: HEK 293T, read-out: cAMP pEC50 (converted). As for the experimental part: as §1

Where a chain is given by its changes, count along the chain named. No end group written: not given here.

Sequence of GLP-1R (WT) (P43220 24-463, species assumed): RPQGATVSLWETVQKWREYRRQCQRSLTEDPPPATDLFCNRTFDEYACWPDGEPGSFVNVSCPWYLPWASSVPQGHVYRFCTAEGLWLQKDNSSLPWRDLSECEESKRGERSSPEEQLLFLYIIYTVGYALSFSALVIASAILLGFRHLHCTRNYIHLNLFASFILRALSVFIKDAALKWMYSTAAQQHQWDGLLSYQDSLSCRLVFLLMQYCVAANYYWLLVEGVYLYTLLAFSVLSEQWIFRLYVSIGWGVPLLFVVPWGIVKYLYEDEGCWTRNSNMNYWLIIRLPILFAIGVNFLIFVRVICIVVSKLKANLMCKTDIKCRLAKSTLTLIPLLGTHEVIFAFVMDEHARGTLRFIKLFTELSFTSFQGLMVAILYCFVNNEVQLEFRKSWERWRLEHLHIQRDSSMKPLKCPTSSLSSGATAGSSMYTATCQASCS

Regarding `CC[C@H](C)[C@H](NC(=O)[C@H](Cc1ccccc1)NC(=O)[C@H](CC(=O)O)NC(=O)[C@H](CCCNC(=N)N)NC(=O)[C@H](C)NC(=O)[C@H](C)NC(=O)[C@H](CC(C)C)NC(=O)[C@H](CC(N)=O)NC(=O)[C@H](CC(=O)O)NC(=O)[C@H](CC(C)C)NC(=O)[C@@H](NC(=O)[C@@H](NC(=O)[C@H](CC(N)=O)NC(=O)[C@H](CCSC)NC(=O)[C@H](CCC(=O)O)NC(=O)[C@H](CC(=O)O)NC(=O)[C@H](CO)NC(=O)[C@H](Cc1ccccc1)NC(=O)[C@H](CO)NC(=O)CNC(=O)[C@H](CC(=O)O)NC(=O)[C@H](C)NC(=O)[C@@H](N)Cc1c[nH]cn1)[C@@H](C)O)[C@@H](C)CC)C(=O)N[C@@H](CC(N)=O)C(=O)N[C@@H](Cc1c[nH]c2ccccc12)C(=O)N[C@@H](CC(C)C)C(=O)N[C@H](C(=O)N[C@@H](CCC(N)=O)C(=O)N[C@H](C(=O)N[C@@H](CCCCN)C(=O)N[C@H](C(=O)N[C@H](C(=O)N[C@@H](CC(=O)O)C(=O)O)[C@@H](C)O)[C@@H](C)CC)[C@@H](C)O)[C@@H](C)CC` [Human GLP-2 (1–33)], the maximum response (Emax) (commonly the greatest response seen or fitted, relative to the assay's reference) in experiment [1] was found to be 4 ± 3.1%; in experiment [2] it was 101 ± 2.8%; in experiment [3] (Table S3, WT) it was 101 ± 2.4%; in experiment [3] (Table S4, WT), 101 ± 2.9%; in experiment [3] (Table S5, GLP-2R (WT)), 103 ± 1.6%. The EC50 in experiment [1] was 5.01 nM.
On to “HADGSFSDEMNTILDNLAAKEFIAWLVKGRG [Chimeric GLP-1/GLP-2 (20-33)]”, for which the Emax turned out to be 112 ± 2.8% in experiment [1]; 104 ± 1.8% in experiment [2]; 104 ± 1.5% in experiment [3] (Table S5, GLP-2R (WT)). Besides, the EC50 was 3.16 nM in experiment [1]; 0.251 nM in experiment [2]; 0.126 nM in experiment [3] (Table S5, GLP-2R (WT)).
In the case of “HADGSFTSDVSSYLEGQAARDFINWLIQTKITD [Chimeric GLP-1/GLP-2 (7-19)]”, the Emax turned out to be 105 ± 2.4% in experiment [1]; 102 ± 1.8% in experiment [2]; 103 ± 2.6% in experiment [3] (Table S5, GLP-2R (WT)). In addition, the EC50 is 0.0126 nM in experiment [1]; 3.16 nM in experiment [2]; 3.16 nM in experiment [3] (Table S5, GLP-2R (WT)).
Consider “HAEGTFSDEMNTILDNLAARDFINWLIQTKITD [Chimeric GLP-1/GLP-2 (1-6)]”, for which the Emax in experiment [1] came to 7.1 ± 3.2%; in experiment [2], 102 ± 2.5%; in experiment [3] (Table S5, GLP-2R (WT)), 103 ± 1.8%. Further, the EC50 in experiment [1] was 7.94 nM; in experiment [2] it was 0.251 nM; in experiment [3] (Table S5, GLP-2R (WT)), 0.158 nM.

For the origin of these results see paper PMC7785020, “A unique hormonal recognition feature of the human glucagon-like peptide-2 receptor” (Cell Research, 2020).
